Results: patent US11186579B2 (Gilead Sciences, Inc., priority 2018, dated 2021)
pEC50: −log10 of the molar value.

Target: T1, IDO1 (Homo sapiens, UniProt P14902)
T1 construct: HeLa cells were treated with a test compound in the presence of IFNγ, which induces IDO1 expression; endogenous in cells; host or cells: H1-HeLa cells (ATCC #CRL-1958), IDO1 induced with IFNγ
Test: Cell-Based (HeLa) Assay for Measurement of IDO1 Inhibition
Conditions: H1-HeLa cells, IDO1 induced with IFNγ, 48 hour incubation, kynurenine in supernatant (absorbance 480 nm); geometric mean of minimum four determinations
Procedure: To measure IDO1 inhibition in tissue culture, HeLa cells were treated with a test compound in the presence of IFNγ, which induces IDO1 expression. Following incubation, cell supernatants were assayed for kynurenine levels, an indicator of IDO1 activity.
The following day, the test compounds were added in DMSO (0.5% final) at various concentrations, and IDO1 was inducibly expressed by the addition of 50 uL/well of 50 ng/mL of INFγ (Peprotech #300-02) in cell plating media. As a positive control, 50 uL of the cell plating media without IFNγ was added to several wells. Following a 48 hour incubation, the plates were spun down at 1,200 RPM for 5 min at 10° C. 65 μL/well of the supernatant was then transferred to new 384-well plates (Thermo #262160) that contained 10 uL/well of 30% TCA (Sigma #TO699), and the plates were sealed and incubated at 60° C. for 30 min. The plates were then centrifuged for 15 min at 2,000 RPM at 10° C. 40 μL/well of the supernatant was transferred to new 384-well plates (Thermo #262160) and was reacted with 40 μL/well of 2% (w/v) p-dimethlyaminobenzaldehyde (Sigma #156417) in glacial acetic acid (Sigma #A6283). The reaction was incubated at room temperature for 10 min and absorbance at 480 nm was read using a PerkinElmer Envision plate reader.
Data in Table 1 were normalized based on positive (-IFNγ) and negative (+IFNγ) controls and EC50 values were calculated from the fit of the dose-response curves to a four-parameter equation. All EC50 values represent geometric mean values of a minimum of four determinations.

T1 sequence (P14902 whole entry): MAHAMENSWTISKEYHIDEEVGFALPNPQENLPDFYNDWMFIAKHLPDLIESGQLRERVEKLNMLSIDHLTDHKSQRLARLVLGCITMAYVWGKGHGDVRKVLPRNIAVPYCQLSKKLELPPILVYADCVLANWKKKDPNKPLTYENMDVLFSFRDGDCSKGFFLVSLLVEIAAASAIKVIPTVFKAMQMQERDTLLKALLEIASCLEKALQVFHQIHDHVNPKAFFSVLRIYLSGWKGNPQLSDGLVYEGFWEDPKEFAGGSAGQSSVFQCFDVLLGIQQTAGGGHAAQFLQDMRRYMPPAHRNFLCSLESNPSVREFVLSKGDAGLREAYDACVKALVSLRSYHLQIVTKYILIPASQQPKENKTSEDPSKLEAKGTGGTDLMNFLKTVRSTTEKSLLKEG

Row | SMILES | pEC50
1 | COCCOCc1nc2c(-c3ccc(C(F)(F)F)c(C(=O)Nc4ccc(F)cc4)c3)cccn2c1-c1cccc(F)c1F [Example 1, 5-(3-(2,3-difluorophenyl)-2-((2-methoxyethoxy)methyl)imidazo[1,2-a]pyridin-8-yl)-N-(4-fluorophenyl)-2-(trifluoromethyl)benz amide] | 5.06
2 | Cc1ncc(-c2cccn3c(-c4cncc(F)c4)c(CO)nc23)cc1C(=O)Nc1ccc(F)cc1 [Example 2, N-(4-fluorophenyl)-5-(3-(5-fluoropyridin-3-yl)-2-(hydroxymethyl)imidazo[1,2-a]pyridin-8-yl)-2-methylnicotinamide] | 5.44
3 | O=C(Nc1ccc(F)cc1)c1cc(-c2cccn3c(-c4cccc(F)c4F)cnc23)ncc1C(F)(F)F [Example 3, 2-(3-(2,3-difluorophenyl)imidazo[1,2-a]pyridin-8-yl)-N-(4-fluorophenyl)-5-(trifluoromethyl)isonicotinamide] | 5.62
4 | Cc1ccc(-c2cnc3c(-c4ccc(C(F)(F)F)c(C(=O)Nc5ccc(F)cc5)c4)cccn23)cn1 [Example 4, N-(4-fluorophenyl)-5-(3-(6-methylpyridin-3-yl)imidazo[1,2-a]pyridin-8-yl)-2-(trifluoromethyl)benzamide] | 5.65
5 | Cc1cccc(-c2cnc3c(-c4ccc(C(F)(F)F)c(C(=O)Nc5ccc(F)cc5)c4)cccn23)n1 [Example 5] | 5.77
6 | O=C(Nc1ccc(F)cc1)c1cc(-c2cccn3c(-c4ccncc4)cnc23)ccc1C(F)(F)F [Example 6, N-(4-fluorophenyl)-5-(3-(pyridin-4-yl)imidazo[1,2-a]pyridin-8-yl)-2-(trifluoromethyl)benzamide] | 5.85
7 | NCc1nc2c(-c3ccc(C(F)(F)F)c(C(=O)Nc4ccc(F)cc4)c3)cccn2c1-c1cccc(F)c1F [Example 7, 5-(2-(aminomethyl)-3-(2,3-difluorophenyl)imidazo[1,2-a]pyridin-8-yl)-N-(4-fluorophenyl)-2-(trifluoromethyl)benzamide] | 6.00
8 | Cc1cnc(-c2cccn3c(-c4cccc(F)c4F)cnc23)cc1C(=O)Nc1ccc(F)cc1 [Example 8, 2-(3-(2,3-difluorophenyl)imidazo[1,2-a]pyridin-8-yl)-N-(4-fluorophenyl)-5-methylisonicotinamide] | 6.02
9 | Cc1ncccc1-c1cnc2c(-c3ccc(C(F)(F)F)c(C(=O)Nc4ccc(F)cc4)c3)cccn12 [Example 9, N-(4-fluorophenyl)-5-(3-(2-methylpyridin-3-yl)imidazo[1,2-a]pyridin-8-yl)-2-(trifluoromethyl)benzamide] | 6.27
10 | Cc1ccc(-c2cccn3c(-c4cccc(F)c4F)c(C)nc23)cc1C(=O)Nc1ccc(F)cc1 [Example 11, 5-(3-(2,3-difluorophenyl)-2-methylimidazo[1,2-a]pyridin-8-yl)-N-(4-fluorophenyl)-2-methylbenzamide] | 6.36
11 | Cc1ncc(-c2cccn3c(-c4cccc(F)c4F)cnc23)cc1C(=O)Nc1ccc(F)cc1 [Example 12, 5-(3-(2,3-difluorophenyl)imidazo[1,2-a]pyridin-8-yl)-N-(4-fluorophenyl)-2-methylnicotinamide] | 6.39
12 | Cc1ncc(-c2ccnn3c(-c4cccc(F)c4F)cnc23)cc1C(=O)Nc1ccc(F)cc1 [Example 13] | 6.40
13 | Cc1ncc(-c2cccn3c(-c4cccc(F)c4F)c(CO)nc23)cc1C(=O)Nc1ccc(F)cc1 [Example 14, 5-(3-(2,3-difluorophenyl)-2-(hydroxymethyl)imidazo[1,2-a]pyridin-8-yl)-N-(4-fluorophenyl)-2-methylnicotinamide] | 6.43
14 | O=C(Nc1ccc(F)cc1)c1cc(-c2cccn3c(-c4cccnc4)c(CO)nc23)ccc1Cl [Example 15, 2-chloro-N-(4-fluorophenyl)-5-(2-(hydroxymethyl)-3-(pyridin-3-yl)imidazo[1,2-a]pyridin-8-yl)benzamide] | 6.57
15 | Cc1ccc(-c2cccn3c(-c4cccc(F)c4F)cnc23)nc1C(=O)Nc1ccc(F)cc1 [Example 16, 6-(3-(2,3-difluorophenyl)imidazo[1,2-a]pyridin-8-yl)-N-(4-fluorophenyl)-3-methylpicolinamide] | 6.77
16 | Cc1ccc(-c2cccn3c(-c4ccccc4)cnc23)cc1C(=O)Nc1ccc(F)cc1 [Example 17, N-(4-fluorophenyl)-2-methyl-5-(3-phenylimidazo[1,2-a]pyridin-8-yl)benzamide] | 6.77
17 | Cc1nc2c(-c3ccc(C(F)(F)F)c(C(=O)Nc4ccc(F)cc4)c3)cccn2c1-c1cccnc1 [Example 18, N-(4-fluorophenyl)-5-(2-methyl-3-(pyridin-3-yl)imidazo[1,2-a]pyridin-8-yl)-2-(trifluoromethyl)benzamide] | 6.78
18 | Cc1ccc(-c2cccn3c(-c4cccc(F)c4)cnc23)cc1C(=O)Nc1ccc(F)cc1 [Example 19, N-(4-fluorophenyl)-5-(3-(3-fluorophenyl)imidazo[1,2-a]pyridin-8-yl)-2-methylbenzamide] | 6.84
19 | O=C(Nc1ccc(F)cc1)c1cc(-c2cccn3c(-c4cccc(F)c4F)cnc23)cnc1C(F)(F)F [Example 20, 5-(3-(2,3-difluorophenyl)imidazo[1,2-a]pyridin-8-yl)-N-(4-fluorophenyl)-2-(trifluoromethyl)nicotinamide] | 7.05
20 | O=C(Nc1ccc(F)cc1)c1cc(-c2cccn3c(-c4cccnc4)c(CO)nc23)ccc1C(F)(F)F [Example 21, N-(4-fluorophenyl)-5-(2-(hydroxymethyl)-3-(pyridin-3-yl)imidazo[1,2-a]pyridin-8-yl)-2-(trifluoromethyl)benzamide] | 7.05
21 | O=C(Nc1ccc(F)cc1)c1cc(-c2cccn3c(-c4cccnc4F)cnc23)ccc1C(F)(F)F [Example 22, N-(4-fluorophenyl)-5-(3-(2-fluoropyridin-3-yl)imidazo[1,2-a]pyridin-8-yl)-2-(trifluoromethyl)benzamide] | 7.13
22 | Cc1ccc(-c2cccn3c(-c4ccccc4F)cnc23)cc1C(=O)Nc1ccc(F)cc1 [Example 23, N-(4-fluorophenyl)-5-(3-(2-fluorophenyl)imidazo[1,2-a]pyridin-8-yl)-2-methylbenzamide] | 7.14
23 | O=C(Nc1ccc(F)cc1)c1nc(-c2cccn3c(-c4cccc(F)c4F)cnc23)ccc1C(F)(F)F [Example 24, 6-(3-(2,3-difluorophenyl)imidazo[1,2-a]pyridin-8-yl)-N-(4-fluorophenyl)-3-(trifluoromethyl)picolinamide] | 7.19
24 | O=C(Nc1ccc(F)cc1)c1cc(-c2cccn3c(-c4cccc(F)c4F)c(CO)nc23)ccc1C(F)(F)F [Example 28, 5-(3-(2,3-difluorophenyl)-2-(hydroxymethyl)imidazo[1,2-a]pyridin-8-yl)-N-(4-fluorophenyl)-2-(trifluoromethyl)benzamide] | 7.40
25 | Fc1ccc2[nH]c(-c3cc(-c4cccn5c(-c6cccc(F)c6F)cnc45)ccc3C(F)(F)F)nc2c1 [Example 36, 2-(5-(3-(2,3-difluorophenyl)imidazo[1,2-a]pyridin-8-yl)-2-(trifluoromethyl)phenyl)-5-fluoro-1H-benzo[d]imidazole] | 6.15
